Patent US20230295197A1, “STAT5 and STAT6 Degraders and Uses Thereof” (REGENTS OF THE UNIVERSITY OF MICHICAN, priority 2022, published 2023)
Read-outs that look alike come from different tables or passages of the source.

Biological target: T1, STAT6 (Homo sapiens, UniProt P42226)
T1 construct: endogenous in cells; host or cells: MOLM-16, KU-812, SKNO1, MB231, L1236
T1 sequence (P42226 1-847): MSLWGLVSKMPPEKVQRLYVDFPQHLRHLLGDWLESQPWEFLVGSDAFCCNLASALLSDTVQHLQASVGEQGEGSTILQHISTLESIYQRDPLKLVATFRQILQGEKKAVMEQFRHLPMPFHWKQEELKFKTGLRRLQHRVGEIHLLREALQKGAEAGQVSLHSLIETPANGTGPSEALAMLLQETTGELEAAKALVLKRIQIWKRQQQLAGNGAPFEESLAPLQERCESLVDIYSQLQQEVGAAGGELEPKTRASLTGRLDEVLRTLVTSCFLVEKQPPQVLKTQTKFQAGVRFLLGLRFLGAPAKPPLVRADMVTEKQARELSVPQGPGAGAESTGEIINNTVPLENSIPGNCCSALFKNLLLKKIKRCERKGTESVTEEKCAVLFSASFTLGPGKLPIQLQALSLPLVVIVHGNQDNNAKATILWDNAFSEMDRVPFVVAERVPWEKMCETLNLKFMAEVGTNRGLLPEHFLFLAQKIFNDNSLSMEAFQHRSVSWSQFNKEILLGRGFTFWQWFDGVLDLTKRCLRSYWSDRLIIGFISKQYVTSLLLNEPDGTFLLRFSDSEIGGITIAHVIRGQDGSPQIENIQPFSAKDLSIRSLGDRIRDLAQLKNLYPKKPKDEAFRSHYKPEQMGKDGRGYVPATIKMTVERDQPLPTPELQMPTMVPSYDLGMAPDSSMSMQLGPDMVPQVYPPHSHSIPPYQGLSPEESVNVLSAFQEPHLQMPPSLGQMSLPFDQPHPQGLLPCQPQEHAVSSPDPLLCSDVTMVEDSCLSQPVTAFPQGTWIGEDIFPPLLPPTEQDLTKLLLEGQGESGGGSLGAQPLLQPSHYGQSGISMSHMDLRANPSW
Test: Immunoblotting (Western blot) analysis of STAT6 degradation efficiency of degraders in treated cells
Assay type: cell-based
Method in brief: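 Treatment of cells with degraders at stated concentrations and exposure times comes first. Lysates are then equalised for total protein by BCA, and the proteins are separated, transferred and immunostained for STAT6 or STAT5 alongside GAPDH. Signal is quantified from infrared fluorescence.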

[1] = L1236 cells, read-out: DC50 S6 L1236
[2] = MOLM-16 cells, class symbols, read-out: DC50 S6 MOLM-16
[3] = MB231 cells, read-out: DC50 S6 MB231

## Cc1ncsc1-c1ccc([C@H](C)NC(=O)[C@@H]2C[C@@H](O)CN2C(=O)[C@@H](NC(=O)CCNC(=O)CC(=O)N2CCN(C(=O)[C@@H](NC(=O)c3cc4cc(C(F)(F)P(=O)(O)O)ccc4s3)C(C)(C)C)[C@H](C(=O)N3CCO[C@H](c4ccccc4)C3)C2)C(C)(C)C)cc1 [Compound 444, (difluoro(2-(((S)-1-((S)-4-(3-((3-(((S)-1-((2S,4R)-4-hydroxy-2-(((S)-1-(4-(4-methylthiazol-5-yl)phenyl)ethyl)carbamoyl)pyrrolidin-1-yl)-3,3-dimethyl-1-oxobutan-2-yl)amino)-3-oxopropyl)amino)-3-oxopropanoyl)-2-((R)-2-phenylmorpholine-4-carbonyl)piperazin-1-yl)-3,3-dimethyl-1-oxobutan-2-yl)carbamoyl)benzo[b]thiophen-5-yl)methyl)phosphonic acid]
[1]
  DC50: > 10 µM
[2]
  DC50: > 10 µM

## CC(C)(C)[C@H](NC(=O)c1cc2cc(C(F)(F)P(=O)(O)O)ccc2s1)C(=O)N1CCC[C@H]1C(=O)N(CCC(=O)NCCCCCCCCCC#Cc1cccc2c1CN(C1CCC(=O)NC1=O)C2=O)c1ccc(Br)cc1 (stereo partly drawn) [Compound 402, ((2-(((2S)-1-((2S)-2-((4-bromophenyl)(3-((11-(2-(2,6-dioxopiperidin-3-yl)-1-oxoisoindolin-4-yl)undec-10-yn-1-yl)amino)-3-oxopropyl)carbamoyl)pyrrolidin-1-yl)-3,3-dimethyl-1-oxobutan-2-yl)carbamoyl)benzo[b]thiophen-5-yl)difluoromethyl)phosphonic acid]
[3]
  DC50: > 10 µM

## Cc1ncsc1-c1ccc([C@H](CC(=O)NCCCCCCC(=O)N[C@H]2C[C@@H](C(=O)N3CCO[C@H](c4ccccc4)C3)N(C(=O)[C@@H](NC(=O)c3cc4cc(C(F)(F)P(=O)(O)O)ccc4s3)C(C)(C)C)C2)NC(=O)[C@@H]2C[C@@H](O)CN2C(=O)[C@@H](NC(=O)C2(F)CC2)C(C)(C)C)cc1 [Compound 569, (difluoro(2-(((S)-1-((2S,4S)-4-(7-((S)-3-((2S,4R)-1-((S)-2-(1-fluorocyclopropane-1-carboxamido)-3,3-dimethylbutanoyl)-4-hydroxypyrrolidine-2-carboxamido)-3-(4-(4-methylthiazol-5-yl)phenyl)propanamido)heptanamido)-2-((R)-2-phenylmorpholine-4-carbonyl)pyrrolidin-1-yl)-3,3-dimethyl-1-oxobutan-2-yl)carbamoyl)benzo[b]thiophen-5-yl)methyl)phosphonic acid]
[2]
  DC50: > 10 µM

## Cc1ncsc1-c1ccc([C@H](C)NC(=O)[C@@H]2C[C@@H](O)CN2C(=O)[C@@H](NC(=O)CCCCNC(=O)CC(=O)N2CCN(C(=O)[C@@H](NC(=O)c3cc4cc(C(F)(F)P(=O)(O)O)ccc4s3)C(C)(C)C)[C@H](C(=O)N3CCO[C@H](c4ccccc4)C3)C2)C(C)(C)C)cc1 [Compound 446, (difluoro(2-(((S)-1-((S)-4-(3-((5-(((S)-1-((2S,4R)-4-hydroxy-2-(((S)-1-(4-(4-methylthiazol-5-yl)phenyl)ethyl)carbamoyl)pyrrolidin-1-yl)-3,3-dimethyl-1-oxobutan-2-yl)amino)-5-oxopentyl)amino)-3-oxopropanoyl)-2-((R)-2-phenylmorpholine-4-carbonyl)piperazin-1-yl)-3,3-dimethyl-1-oxobutan-2-yl)carbamoyl)benzo[b]thiophen-5-yl)methyl)phosphonic acid]
[1]
  DC50: > 10 µM
[2]
  DC50: > 10 µM

## Cc1ncsc1-c1ccc(CNC(=O)[C@@H]2C[C@@H](O)CN2C(=O)[C@@H](NC(=O)CCCCCCCCCNC(=O)CO[C@@H]2C[C@@H](C(=O)N(C)c3ccc(Br)cc3)N(C(=O)[C@@H](NC(=O)c3cc4cc(C(F)(F)P(=O)(O)O)ccc4s3)C(C)(C)C)C2)C(C)(C)C)cc1 [Compound 421, ((2-(((S)-1-((2S,4R)-2-((4-bromophenyl)(methyl)carbamoyl)-4-(2-((10-(((S)-1-((2S,4R)-4-hydroxy-2-((4-(4-methylthiazol-5-yl)benzyl)carbamoyl)pyrrolidin-1-yl)-3,3-dimethyl-1-oxobutan-2-yl)amino)-10-oxodecyl)amino)-2-oxoethoxy)pyrrolidin-1-yl)-3,3-dimethyl-1-oxobutan-2-yl)carbamoyl)benzo[b]thiophen-5-yl)difluoromethyl)phosphonic acid]
[1]
  DC50: > 10 µM
[3]
  DC50: > 10 µM

## Cc1ncsc1-c1ccc([C@H](C)NC(=O)[C@@H]2C[C@@H](O)CN2C(=O)[C@@H](NC(=O)CCCCCCCCCNC(=O)CC(=O)N2CCN(C(=O)[C@@H](NC(=O)c3cc4cc(C(F)(F)P(=O)(O)O)ccc4s3)C(C)(C)C)[C@H](C(=O)N3CCO[C@H](c4ccccc4)C3)C2)C(C)(C)C)cc1 [Compound 451, (difluoro(2-(((S)-1-((S)-4-(3-((10-(((S)-1-((2S,4R)-4-hydroxy-2-(((S)-1-(4-(4-methylthiazol-5-yl)phenyl)ethyl)carbamoyl)pyrrolidin-1-yl)-3,3-dimethyl-1-oxobutan-2-yl)amino)-10-oxodecyl)amino)-3-oxopropanoyl)-2-((R)-2-phenylmorpholine-4-carbonyl)piperazin-1-yl)-3,3-dimethyl-1-oxobutan-2-yl)carbamoyl)benzo[b]thiophen-5-yl)methyl)phosphonic acid]
[1]
  DC50: > 10 µM
[2]
  DC50: > 10 µM

## Cc1ncsc1-c1ccc([C@H](C)NC(=O)[C@@H]2C[C@@H](O)CN2C(=O)[C@@H](NC(=O)CNC(=O)CC(=O)N2CCN(C(=O)[C@@H](NC(=O)c3cc4cc(C(F)(F)P(=O)(O)O)ccc4s3)C(C)(C)C)[C@H](C(=O)N3CCO[C@H](c4ccccc4)C3)C2)C(C)(C)C)cc1 [Compound 443, (difluoro(2-(((S)-1-((S)-4-(3-((2-(((S)-1-((2S,4R)-4-hydroxy-2-(((S)-1-(4-(4-methylthiazol-5-yl)phenyl)ethyl)carbamoyl)pyrrolidin-1-yl)-3,3-dimethyl-1-oxobutan-2-yl)amino)-2-oxoethyl)amino)-3-oxopropanoyl)-2-((R)-2-phenylmorpholine-4-carbonyl)piperazin-1-yl)-3,3-dimethyl-1-oxobutan-2-yl)carbamoyl)benzo[b]thiophen-5-yl)methyl)phosphonic acid]
[1]
  DC50: > 10 µM
[2]
  DC50: > 10 µM

## CC(C)(C)[C@H](NC(=O)c1cc2cc(C(F)(F)P(=O)(O)O)ccc2s1)C(=O)N1Cc2cc(OCC(=O)NCCCC#Cc3cccc4c3C(=O)N(C3CCC(=O)NC3=O)C4=O)ccc2C[C@H]1C(=O)N1CCO[C@H](c2ccccc2)C1 (stereo partly drawn) [Compound 539, ((2-(((2S)-1-((3S)-7-(2-((5-(2-(2,6-dioxopiperidin-3-yl)-1,3-dioxoisoindolin-4-yl)pent-4-yn-1-yl)amino)-2-oxoethoxy)-3-((R)-2-phenylmorpholine-4-carbonyl)-3,4-dihydroisoquinolin-2(1H)-yl)-3,3-dimethyl-1-oxobutan-2-yl)carbamoyl)benzo[b]thiophen-5-yl)difluoromethyl)phosphonic acid]
[2]
  DC50: > 10 µM
